These results are taken from patent US20070092444A1, “Inhibition of inward sodium currents in cancer” (priority 2003, published 2007).

Test [1] relates to inward Na^+ currents in U87-MG cells. The test can be described thus: Whole-cell patch clamp, U87-MG glioma cells. The class given is cell-based, human. The method, then: (§1) FIGS. 7A-7C show representative whole-cell patch clamp recordings.
(§2) The amiloride-sensitive inward Na^+ currents are measured regardless of whether ASIC2 is absent or present (FIGS. 7A-D). Whole-cell patch clamp recordings were obtained from U87-MG, SK-MG, and D54-MG glioma cells in the basal state. […] This inhibition of the inward current occurred regardless of the absence or presence of ASIC2 mRNA (FIG. 7D) (as detected by RT-PCR as described above).
(§3) FIG. 19A show representative whole-cell patch clamp recordings of ZR-75-1 and SKMEL-2 cells in the basal state.
(In general: In patch-clamp work, channel activity is measured electrically.)

Test [2] relates to whole-cell currents of normal human astrocytes. As to the kind of experiment: Whole-cell patch clamp, normal human astrocytes. The test is classed as cell-based. From the text:
(§4) FIGS. 2A-C show representative whole-cell patch clamp recordings.
(§5) FIGS. 4A and B show summary I-V curves of freshly resected normal astrocytes (FIG. 4A) and GBM cells (FIG. 4B). Inward currents (−60 mV) were −7.5±1.2 pA (normal) and −43.8±14.5 pA (GBM). Outward currents (+40 mV) averaged 42.2±2.4 pA and 47.2±12.5 pA for normal and GBMs, respectively. FIGS. 4C and D show summary amiloride-sensitive (difference) currents of freshly resected normal astrocytes (FIG. 4C) and GBM cells (FIG. 4D).
A constitutive amiloride-sensitive inward Na^+ conductance has been reported in human high-grade glioma cells. […] These inward Na^+ currents were not present in normal astrocytes or in low-grade astrocytomas (e.g., pilocytic astrocytomas). However, the composition of the channels responsible for the inward Na^+ conductance has not been reported. FIGS. 2A-C show representative whole cell patch-clamp measurements on tissue derived from a freshly resected human glioblastoma multiforme (GBM; WHO grade IV), normal astrocytes obtained from patients undergoing surgery for intractable epilepsy, and primary cultures of different grade glial tumors. […] However, there was no significant inward Na^+ current in normal astrocytes and Grades I and II astrocytoma cells (FIG. 2C). […]

In test [3] the test system is constitutive inward Na^+ current of ZR-75-1 breast carcinoma cells. The test can be described thus: Whole-cell patch clamp, ZR-75-1 breast carcinoma cells. The test is classed as cell-based.
Description: (§6) FIGS. 5A-5C show representative whole-cell patch clamp recordings.
(§7) FIGS. 19A-19C show representative whole-cell patch clamp recordings.
(§8) A constitutive amiloride-sensitive inward Na^+ conductance was also observed in the breast carcinoma cell line ZR-75-1 and the melanoma cell line SKMEL-2. FIGS. 5A-C show representative whole cell patch-clamp measurements on ZR-75-1 cells and SKMEL-2 cells.
as §3

In test [4] the test system is constitutive amiloride-sensitive inward Na^+ current in high-grade glioma (GBM) cells. The test can be described thus: Whole-cell patch clamp, freshly resected and primary cultured high-grade glioma (Grade III/IV, GBM) cells. The test is classed as cell-based, human.
Description: as §4, §5
A constitutive amiloride-sensitive inward Na^+ conductance has been reported in human high-grade glioma cells. […] These inward Na^+ currents were not present in normal astrocytes or in low-grade astrocytomas (e.g., pilocytic astrocytomas). However, the composition of the channels responsible for the inward Na^+ conductance has not been reported. FIGS. 2A-C show representative whole cell patch-clamp measurements on tissue derived from a freshly resected human glioblastoma multiforme (GBM; WHO grade IV), normal astrocytes obtained from patients undergoing surgery for intractable epilepsy, and primary cultures of different grade glial tumors. […] However, there was no significant inward Na^+ current in normal astrocytes and Grades I and II astrocytoma cells (FIG. 2C).
Summary current-voltage (I-V) curves are presented for normal astrocytes and GBM cells in FIG. 4A and FIG. 4B, respectively, while difference I-V curves for normal astrocytes and GBM cells are presented in FIG. 4C and FIG. 4D, respectively. The GBM cells are depolarized by an average of 31 mV compared to the normal astrocytes under these recording conditions. The depolarized zero current membrane potential is due to the presence of an enhanced Na^+ conductance as is shown in the difference I-V curves.
as §3

Test [5] relates to inward Na^+ currents in SK-MG cells. The test can be described thus: Whole-cell patch clamp, SK-MG glioma cells. The class given is cell-based, human. The method, then:
as §1, §2, §3

Test [6] relates to constitutive inward Na^+ current of SKMEL-2 melanoma cells. As to the kind of experiment: Whole-cell patch clamp, SKMEL-2 melanoma cells. The class given is cell-based.
Description: as §6, §7, §8, §3

The next test concerns the target T1, ASIC2 (Homo sapiens, UniProt Q16515).
T1 sequence (Q16515 1-512): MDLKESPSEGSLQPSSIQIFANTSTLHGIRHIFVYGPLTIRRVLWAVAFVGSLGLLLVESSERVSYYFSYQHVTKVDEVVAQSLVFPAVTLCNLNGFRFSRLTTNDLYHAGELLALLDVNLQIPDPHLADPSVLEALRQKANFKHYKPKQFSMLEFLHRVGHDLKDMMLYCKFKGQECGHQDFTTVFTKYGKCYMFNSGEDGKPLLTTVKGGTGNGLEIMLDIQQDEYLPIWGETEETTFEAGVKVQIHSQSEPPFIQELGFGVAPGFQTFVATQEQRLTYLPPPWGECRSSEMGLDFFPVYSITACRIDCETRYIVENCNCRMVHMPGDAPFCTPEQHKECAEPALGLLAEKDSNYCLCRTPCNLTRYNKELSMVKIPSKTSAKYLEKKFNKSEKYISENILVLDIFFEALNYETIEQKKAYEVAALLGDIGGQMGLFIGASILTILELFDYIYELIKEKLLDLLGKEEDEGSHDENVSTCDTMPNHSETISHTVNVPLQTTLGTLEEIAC
As to the kind of experiment: Acid-activated currents in voltage-clamped Xenopus oocytes expressing ASIC2. The test is classed as cell-based. On the set-up: expressed in transfected cells; host or cells: Xenopus oocytes (cRNA injection). Conditions: pHo 4.0, −60 mV.
Description: FIGS. 8A-C show acid-activated ASIC currents in Xenopus oocytes. ASIC 2 (FIG. 8A), ASIC1 (FIG. 8B) and the combination of ASIC2 and ASIC1 (FIG. 8C) were examined. […] Each oocyte served as its own control.
(§9) Membrane potential was held at −60 mV, and the pHo was step decreased to 4.0 for 10 s, and then returned to 7.4 for 30 s before repeating the sequence.
Xenopus oocytes were used to express ASIC1 and ASIC2 mRNA individually and in combination. Oocyte preparation, cRNA injection, and two-electrode voltage clamp recordings were performed as described (33,67-69).
as §9

Entries after “also recorded” stand apart in the source; their conditions may differ.

Consider `N=C(N)NC(=O)c1nc(Cl)c(N)nc1N` [amiloride], for which the “inhibition of inward Na^+ currents” value in test [1] (100 μM amiloride) is recorded as “inhibited; also recorded: likewise blocked”; in test [4] (100 μM amiloride, Grade III and IV tumor cells, GBM), “completely inhibited; also recorded: blocked; also recorded: significantly inhibited”; in test [5] (100 μM amiloride) it was “inhibited; also recorded: likewise blocked”. The effect on currents result in test [2] (100 μM amiloride, normal astrocytes) was “did not affect”. The “inhibition of inward currents” value in test [3] (100 μM amiloride) and in test [6] (100 μM amiloride) was “completely inhibited” in each case. Further, the “inhibition of acid-activated currents” value on ASIC2 (400 μM amiloride) is reported as “inhibited”.

Turning to Psalmotoxin 1 [PcTX1], the “block of inward basally activated currents” value in test [1] and in test [4] (primary cultured GBM) was “similarly blocked” throughout. For the same molecule, the “effect on whole-cell currents” value in test [2] (PcTX1 (10 nM, FIG. 18B), normal human astrocytes) is “without effect”. Further, the “block of constitutive inward Na^+ current” value in test [3] (10 nM synthetic PcTX1) was “blocked”; in test [4] (10 nM peptide, freshly resected GBM) it was “blocked”; in test [5] (10 nM peptide) it was “blocked”; in test [6] (10 nM synthetic PcTX1), “blocked”. The “block of acid-induced inward currents” value with ASIC2 (1 nM peptide (FIG. 20)) is “not those inward Na^+ currents mediated by ASIC2; also recorded: not the inward currents mediated by ASIC2”.
